This passage reports inhibition, IC50 and Km results from ChEMBL document CHEMBL3227989, “Coenzyme--substrate adducts as inhibitors of mouse liver 3,4-dihydroxyphenylalanine decarboxylase” (J Med Chem, 1979).

The target in data set [1] is T1, Aromatic-L-amino-acid decarboxylase (Mus musculus) (UniProt O88533).
T1 sequence (whole entry): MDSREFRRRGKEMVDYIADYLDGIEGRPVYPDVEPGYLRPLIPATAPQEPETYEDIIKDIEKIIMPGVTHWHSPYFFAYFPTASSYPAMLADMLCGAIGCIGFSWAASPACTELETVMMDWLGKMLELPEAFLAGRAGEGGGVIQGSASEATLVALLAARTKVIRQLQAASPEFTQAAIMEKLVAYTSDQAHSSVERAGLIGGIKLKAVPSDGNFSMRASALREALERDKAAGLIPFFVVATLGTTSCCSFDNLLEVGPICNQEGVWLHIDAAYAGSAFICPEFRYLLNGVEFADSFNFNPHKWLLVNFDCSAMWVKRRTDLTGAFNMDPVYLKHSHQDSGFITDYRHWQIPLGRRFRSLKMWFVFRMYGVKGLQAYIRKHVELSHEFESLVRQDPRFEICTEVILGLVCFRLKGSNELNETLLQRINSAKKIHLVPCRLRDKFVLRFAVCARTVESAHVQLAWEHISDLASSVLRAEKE
As to the kind of experiment: Inhibition of ICR Swiss mouse liver dopa decarboxylase at 10^-3 M after 15 mins.

For data set [2], the target named is T2, Aromatic-L-amino-acid decarboxylase (Mus musculus, UniProt O88533).
T2 sequence (O88533 whole entry): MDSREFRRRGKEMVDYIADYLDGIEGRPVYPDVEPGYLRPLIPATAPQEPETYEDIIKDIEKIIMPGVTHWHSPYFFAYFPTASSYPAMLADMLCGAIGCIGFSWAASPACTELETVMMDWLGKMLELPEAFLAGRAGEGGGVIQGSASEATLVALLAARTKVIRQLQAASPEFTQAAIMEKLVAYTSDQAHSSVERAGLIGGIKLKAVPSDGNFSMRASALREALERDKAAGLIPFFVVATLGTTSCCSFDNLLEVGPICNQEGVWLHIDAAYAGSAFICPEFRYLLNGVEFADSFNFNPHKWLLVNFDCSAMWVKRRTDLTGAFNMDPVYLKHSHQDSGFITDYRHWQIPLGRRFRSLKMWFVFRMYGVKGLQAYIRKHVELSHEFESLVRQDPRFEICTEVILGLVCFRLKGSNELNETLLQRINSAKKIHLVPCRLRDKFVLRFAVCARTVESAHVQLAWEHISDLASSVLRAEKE
The data set is described as follows: Inhibition of ICR Swiss mouse liver dopa decarboxylase after 15 mins.

The target of data set [3] is T1, Aromatic-L-amino-acid decarboxylase (Mus musculus). The data set is described as follows: Inhibition of ICR Swiss mouse liver dopa decarboxylase at 2 X 10^-5 M after 15 mins.
Data set [4] has the same target. The data set is described as follows: Inhibition of ICR Swiss mouse liver dopa decarboxylase at 2 X 10^-3 M after 15 mins.
Data set [5] shares this target. As to the kind of experiment: Inhibition of ICR Swiss mouse liver dopa decarboxylase at 2 X 10^-4 M after 15 mins.
For data set [6] the target is unchanged. As to the kind of experiment: Inhibition of ICR Swiss mouse liver dopa decarboxylase at 10^-4 M after 15 mins.
Data set [7] shares this target. The data set is described as follows: Inhibition of ICR Swiss mouse liver dopa decarboxylase at 10^-5 M after 15 mins.
Compound in data set [8]: Cc1ncc(COP(=O)(O)O)c(CN[C@@H](Cc2ccc(O)c(O)c2)C(=O)O)c1O
The data set is described as follows: Inhibition of pig liver dopa decarboxylase. To be noted: Sus scrofa.

The inhibition is the relative decrease from the control value, in per cent. Low readings indicate a weak effect, high ones a strong effect. `Cc1ncc(COP(=O)(O)O)c(C2NC(C(=O)O)Cc3cc(O)c(O)cc32)c1O` (racemic): the inhibition in data set [1] was under 10%. Usually IC50 stands for the concentration that gives 50% inhibition. Low readings indicate greater potency in that assay, high ones weaker potency in that assay. With `Cc1ncc(COP(=O)(O)O)c(CN[C@@H](Cc2ccc(O)cc2)C(=O)O)c1O`, the IC50 in data set [2] was found to be 70 µM.

In data set [3], `Cc1ncc(COP(=O)(O)O)c(CNC(Cc2ccc(O)c(O)c2)C(=O)O)c1O` (racemic) registered an inhibition of 63%.

`Cc1cnc(C)c(O)c1CNC(Cc1ccc(O)c(O)c1)C(=O)O` (racemic): the inhibition was determined as 50% in data set [4] and 15% in data set [5]. `Cc1ncc(COP(=O)(O)O)c(CN[C@@H](Cc2ccccc2)C(=O)O)c1O`: the inhibition in data set [1] came to 83%; in data set [6] it was 57%; in data set [7], 17%; in data set [4], 85%.

For the molecule `Cc1ncc(COP(=O)(O)O)c(CNC(Cc2ccccc2O)C(=O)O)c1O` (racemic), the inhibition turned out to be 62% in data set [4] and 53% in data set [3]. With `Cc1ncc(COP(=O)(O)O)c(CN[C@@H](Cc2ccc(O)c(O)c2)C(=O)O)c1O`, in data set [2], inhibition was half-maximal at 10 µM (IC50).

B1: Aromatic-L-amino-acid decarboxylase (Sus scrofa), P80041 (protein)
chain: MNASDFRRRGKEMVDYMADYLEGIEGRQVYPDVQPGYLRPLIPATAPQEPDTFEDILQDVEKIIMPGVTHWHSPYFFAYFPTASSYPAMLADMLCGAIGCIGFSWAASPACTELETVMMDWLGKMLQLPEAFLAGEAGEGGGVIQGSASEATLVALLAARTKVVRRLQAASPGLTQGAVLEKLVAYASDQAHSSVERAGLIGGVKLKAIPSDGKFAMRASALQEALERDKAAGLIPFFVVATLGTTSCCSFDNLLEVGPICHEEDIWLHVDAAYAGSAFICPEFRHLLNGVEFADSFNFNPHKWLLVNFDCSAMWVKRRTDLTGAFKLDPVYLKHSHQGSGLITDYRHWQLPLGRRFRSLKMWFVFRMYGVKGLQAYIRKHVQLSHEFEAFVLQDPRFEVCAEVTLGLVCFRLKGSDGLNEALLERINSARKIHLVPCRLRGQFVLRFAICSRKVESGHVRLAWEHIRGLAAELLAAEEGKAEIKS
The term Km denotes the concentration of substrate that gives half-maximal velocity. As to B1, in data set [8], the Km was 190 µM.
